Measurements: patent US9144539B2, “Methioninase inhibitor and composition and food or drink containing the same” (Lotte Co., Ltd., priority 2006, dated 2015)

The compounds below were run against T1, methioninase (Fusobacterium nucleatum subsp. nucleatum, UniProt Q8RDT4) (assay: Cell-free methioninase inhibition test (α-ketobutyrate production from methionine)). Conditions: cell-free enzyme from sonicated bacteria; read-out: IC50 against methioninase (converted).
T1 construct: disrupted by sonication to obtain the enzyme; endogenous in cells; host or cells: Fusobacterium nucleatum JCM 8532, sonicated cell lysate (unpurified)
T1 sequence (Q8RDT4 1-395): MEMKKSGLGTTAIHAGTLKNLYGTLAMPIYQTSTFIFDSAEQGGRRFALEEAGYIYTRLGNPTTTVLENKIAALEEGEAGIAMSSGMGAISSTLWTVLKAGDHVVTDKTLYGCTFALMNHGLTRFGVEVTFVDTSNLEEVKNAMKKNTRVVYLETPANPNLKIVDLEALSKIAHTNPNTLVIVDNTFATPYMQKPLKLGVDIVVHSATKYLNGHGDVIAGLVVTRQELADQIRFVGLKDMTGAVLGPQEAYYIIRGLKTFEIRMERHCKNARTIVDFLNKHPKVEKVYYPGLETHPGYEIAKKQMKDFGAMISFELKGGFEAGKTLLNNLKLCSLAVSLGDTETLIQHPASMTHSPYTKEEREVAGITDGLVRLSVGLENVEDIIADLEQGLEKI
Assay type: biochemical

Row | Compound | IC50 [µM]
1 | CC(C)=CCC/C(C)=C/Cc1cc(C(=O)O)cc(CC=C(C)C)c1O [Myrsinoic acid A, myrsinoic acid A] | 14.6
2 | CC(C)=CCCC(C)(O)C1Cc2cc(C(=O)O)cc(CC=C(C)C)c2O1 (stereo not drawn) [Myrsinoic acid B, myrsinoic acid B] | 11.2
3 | CC(C)=CCC[C@]1(C)Oc2c(CC=C(C)C)cc(C(=O)O)cc2C[C@@H]1O [Myrsinoic acid C, myrsinoic acid C] | 13.9
4 | CC(C)=CCC/C(C)=C/Cc1cc(C(=O)O)cc(C/C=C(\C)CCC=C(C)C)c1O [Myrsinoic acid E (Synthesized), Myrsinoic acid E] | 12.2
5 | CC(C)=CCC/C(C)=C/Cc1cc(C(=O)O)cc(C/C=C(\C)CCC=C(C)C)c1O [Myrsinoic acid E, myrsinoic acid E] | 12.2
6 | CC(C)=CC/C=C(\C)C1Cc2cc(C(=O)O)cc(CC=C(C)C)c2O1 (stereo not drawn) [Myrsinoic acid F, myrsinoic acid F] | 8.81
